Results taken from publication PMC2377083, “IDN 5390: an oral taxane candidate for protracted treatment schedules” (British Journal of Cancer, 2003).
Converted amounts (≈) assume the structure as drawn. “And” between values parts separate entries of the source, which are not always exact repeats. Equal entries are not always repeated. Where two headings read alike, the source gives them in different places.

Tests used:
[1] = tested on: A2780 (human ovarian carcinoma); assay: Antiproliferative activity, A2780; type: cell-based; settings: 72 h treatment, cell counting, mean±s.d., three experiments
Protocol: (§1) Drugs were dissolved in DMSO and freshly diluted in medium before use. The antiproliferative activity was evaluated on A2780 (human ovarian carcinoma) and its derived drug-resistant cell lines (A2780/DX, A2780/DDP), IGROV-1/Pt1 (human ovarian carcinoma), GBM (human glioblastoma) and MX-1 (human mammary carcinoma). All cell lines, except MX-1, were maintained in RPMI 1640 (Bio-Whittaker, Verviers, Belgium) supplemented with 10% fetal calf serum (Life Technologies, Gaithersburg, MD, USA). MX-1 cells were maintained in McCoy's medium (Life Technologies, Gaithersburg, MD, USA) supplemented with 10% fetal calf serum. For experiments, all cell lines were seeded into six-well plates in duplicate and treated, 24 or 72 h (only MX-1 cells) after seeding, with solvent or different concentrations of taxanes. Adherent cells were counted 72 h after the beginning of treatment, by a cell counter (Coulter Electronics, Luton, UK) or detected by the Sulforhodamine B colorimetric assay (only GBM cells). The IC50 was defined as the drug concentration causing a 50% decrease in cell number over that of untreated controls.

[2] = tested on: A2780/DX cells; assay: Antiproliferative activity, A2780/DX; type: cell-based; settings: Homo sapiens, 72 h treatment, cell counting, MDR phenotype mediated by P-gp
Protocol: as §1

[3] = tested on: A2780/DDP cells; assay: Antiproliferative activity, A2780/DDP; type: cell-based; settings: Homo sapiens, 72 h treatment, cell counting, mean±s.d., three experiments
Protocol: as §1

[4] = tested on: IGROV-1/Pt (human ovarian carcinoma); assay: Antiproliferative activity, IGROV-1/Pt; type: cell-based
Protocol: as §1

[5] = tested on: MX-1 (human mammary carcinoma); assay: Antiproliferative activity, MX-1; type: cell-based; settings: 72 h treatment, cell counting, mean±s.d., three experiments
Protocol: as §1

[6] = tested on: GBM (human glioblastoma); assay: Antiproliferative activity, GBM (Sulforhodamine B); type: cell-based
Protocol: as §1

[7] = tested on: human tumour cell lines; type: cell-based
Protocol: as §1

[8] = Pharmacokinetic study, plasma levels by HPLC; type: in vivo, CDF1 mice; settings: female, CDF1, mouse
Protocol: In order to assess the bioavailability of IDN 5390, a pharmaco-kinetic study was performed in female CDF1 mice (Charles River Italia, Calco, Italy). IDN 5390, formulated in Polysorbate 80 and diluted in 0.9% NaCl solution, immediately before treatment, was administered p.o. or i.v. at the dose of 120 mg kg^−1. Blood samples were taken (four mice per group) from the retro-orbital plexus, under diethylether anaesthesia at 5, 15 and 30 min and at 1, 2 and 4 h.
IDN 5390 levels were determined in plasma according to the high-performance liquid chromatography (HPLC) method of [Zaffaroni et al (2002)]. Briefly, plasma samples (0.4 ml) were spiked with 1 μg IDN 5517, as internal standard, and with 0.7 ml of 0.2 M ammonium acetate buffer, pH 4.5, and extracted by solid-phase extraction on a cyano cartridge (Waters, Millford, MA, USA). HPLC analyses were carried out on a Symmetry C18 column (3.5 μm, 4.6 × 150 mm; Waters, London, UK), with UV detection of the analytes at 227 nm. The lower limit of quantitation was of 50 ng ml^−1.
Pharmacokinetic parameters were calculated by using a nonlinear fitting program ([Sacchi-Landriani et al, 1983]). The experimental areas under the concentration–time curve (AUCexp) of IDN 5390 were calculated by the trapezoidal rule. Extrapolations to infinity (AUCinf) were obtained by dividing the concentration at the last experimental points by the elimination constant (Ke). The terminal half-lives (T1/2) were calculated using the formula T1/2=0.693/Ke. Clearance (Clp) and volume of distribution (Vd) were obtained from the following relation: Clp=Dose/AUCext and Vd=Clp/Ke, respectively. The bioavailability (F) was derived from the ratio: F=AUCp.o./AUCi.v. 100.

[9] = mouse, in vivo
[10] = in vivo; settings: female, athymic nude CD-1, mouse, sc
[11] = tested on: A2780/DDP ovarian tumour xenograft; assay: Antitumour activity on A2780/DDP xenograft; settings: for Tox/Tot: toxic deaths/total mice
Protocol: (§2) All the experiments were carried out using female athymic nude CD-1 mice, 8–11 weeks old (Charles River, Calco, Italy). The mice were maintained in laminar flow rooms with constant temperature and humidity.
(§3) Taxanes were dissolved by adding absolute ethanol and Cremophor ELP (both 5% of the final volume), in that sequence, on a magnetic stirrer. […] After dilution, the drug solutions were always kept on ice. […] (Milano, Italy) and, just before use, it was diluted, by slowly adding 0.9% NaCl and occasionally stirring the solution (final Polysorbate 80: 10%, v v^−1). […] When higher doses were to be given, larger volumes were injected.
(§4) Tumour lines were maintained in vivo by successive s.c. transplants of tumour fragments in animal flanks.
(§5) For chemotherapy experiments, tumour fragments (about 2 × 2 × 2 mm), obtained from tumour lines, were implanted s.c. Each control or drug-treated group included five or six mice bearing bilateral s.c. tumours. Tumours were implanted on day 0, and tumour growth was followed by biweekly measurements of tumour diameters with a vernier caliper. Tumour weight (TW) was calculated according to the formula: TW (mg)=tumour volume (mm^3)=d^2 × D/2, where d and D are the shortest and the longest diameter, respectively. Different treatment routes (i.v., s.c. or p.o.) and schedules (daily or intermittent) were investigated. […] Control mice were injected with the solvent solution.
(§6) Experimental groups were eliminated when mean TW was about 1.5±0.5 g, or after 100 days.
(§7) For statistical analysis, tumour weights in different groups of treated mice were compared on day of TWI% evaluation, by Student's t-test (two-tailed). P⩽0.05 was considered significant.
(§8) The tolerability of the compound was assessed in tumour-bearing mice as follows: (a) lethal toxicity, that is, any death in treated mice without or with small (⩽300 mg) tumours, or occurring before any control death; (b) body weight loss % (BWL%)=100–(BW on day x/BW on day 1 × 100), where x represents a day after or during the treatment period. The maximal BWL values are reported; and (c) vesicant toxicity defined as the appearance of ulcers and/or inflammation at the injection site where the drugs were delivered s.c.

[12] = tested on: VEGF; assay: VEGF expression in GBM cells, immunoblotting; settings: 72 h at IC80: IDN 5390 40, PTX 17 ng ml^−1
[13] = tested on: bFGF; assay: bFGF expression in GBM cells, immunoblotting; settings: 72 h at IC80: IDN 5390 40, PTX 17 ng ml^−1
[14] = tested on: INT.ACP/PTX PTX-resistant ovarian tumour xenograft; assay: Antitumour activity on INT.ACP/PTX xenograft; settings: p.o.
Protocol: as §2, §3, §4, §5, §6, §7, §8

[15] = s.c., qd × 5/w × 2w, 120 mg kg^−1
[16] = qd × 5/w × 2w, 2 × 120 mg kg^−1

## CC(=O)O[C@@]1([C@@H]2/C(C)=C(/O)C(=O)C3=C(C)[C@@H](OC(=O)[C@H](O)[C@H](CC(C)C)NC(=O)OC(C)(C)C)C[C@@](O)([C@H]2OC(=O)c2ccccc2)C3(C)C)CO[C@@H]1CCO [IDN 5390, 13-(N-Boc-β-isobutylisoserinyl)-10β-dehydro-C-seco-10-deacetylbaccatin III]
[1]
  IC50: 0.023 ± 0.0004 µg/mL (≈ 0.0292 µM)
[2]
  IC50: 0.334 µg/mL (≈ 0.424 µM)
[3]
  IC50: 0.0318 ± 0.0055 µg/mL (≈ 0.0404 µM)
[4]; IGROV-1, 72 h treatment, cell counting, mean±s.d., three experiments
  IC50: 0.0615 ± 0.0045 µg/mL (≈ 0.0781 µM)
[4]; IGROV-1/Pt cells, read-out: IC80 (equitoxic concentration)
  IC80: 0.3 µg/mL (≈ 0.381 µM)
[5]
  IC50: 0.0345 ± 0.0078 µg/mL (≈ 0.0438 µM)
[6]; 72 h treatment, Sulforhodamine B assay, mean±s.d., three experiments
  IC50: 0.0129 ± 0.0024 µg/mL (≈ 0.0164 µM)
[6]; GBM cells, read-out: IC80 (equitoxic concentration)
  IC80: 0.04 µg/mL (≈ 0.0508 µM)
[7]
  reduction of cytotoxicity as compared to PTX: 2–3 fold
[8]; in vivo, bioavailability (F)
  bioavailability: 27.3%
[8]; in vivo, iv
  Vd: 0.21
[8]; in vivo, iv, 120 mg/kg
  AUC: 125000 ng·h/mL
  AUC(0-inf): 128000 ng·h/mL
  Cmax: 161 µg/mL
  Tmax: 5 min
  clearance: 15.5 mL/min/kg
  half-life: 54 min
[8]; in vivo, po, 120 mg/kg
  AUC: 34400 ng·h/mL
  AUC(0-inf): 35100 ng·h/mL
  Cmax: 25 µg/mL
  Tmax: 30 min
  half-life: 42 min
[8]; plasma, 120 mg kg^−1, in mice, read-out: T1/2
  half-life: < 60 min
[9]
  neurotoxicity: no symptoms of neurotoxicity were evident
[10]
  MTD: 120 mg/kg
[11]; i.v., q4d × 4, 90 mg kg^−1
  LCK (1 g): 0.2
  Max BWL (%): 0%
  Tox/Tot: 0/5
[11]; i.v., q4d × 4, 90 mg kg^−1, day 18, start at tumour weight about 100 mg
  Max TWI%: 17 (18) %
[11]; i.v., q4d × 4, 120 mg kg^−1
  LCK (1 g): 0.3
  Max BWL (%): 3%
  Tox/Tot: 0/5
[11]; i.v., q4d × 4, 120 mg kg^−1, day 18
  Max TWI%: 46 (18) %
[11]; [15]
  LCK (1 g): 1.8
  Max BWL (%): 2.5%
  Tox/Tot: 0/5
[11]; s.c., qd × 5/w × 2w, 120 mg kg^−1, day 27
  Max TWI%: 92 (27) %
[12]
  VEGF expression: downregulated
[13]
  bFGF expression: downregulated
[14]; qd × 5/w × 2w, 180 mg kg^−1
  LCK (1 g): 1.9
  Max BWL (%): 10%
  Tox/Tot: 2/5
[14]; qd × 5/w × 2w, 180 mg kg^−1, P<0.05 vs 2 × 90 mg kg^−1
  TWI% (day 27): 96% and 96 ^* %
[14]; [16]
  LCK (1 g): 1.4
  Max BWL (%): 15%
  TWI% (day 27): 87%
  Tox/Tot: 1/5
[14]; qd × 5/w × 3w, 2 × 90 mg kg^−1
  LCK (1 g): 0.8
  Max BWL (%): 9%
  TWI% (day 27): 66%
  Tox/Tot: 0/6
